Experimental data taken from patent US11731977B2, “SGC stimulators” (Cyclerion Therapeutics, Inc., priority 2016, dated 2023).

Molecular target: T1, sGC enzyme (Homo sapiens, UniProt Q02108+Q02153)
T1 construct: sGC enzyme activity values in HEK cells, determined by the GloSensor assay; host or cells: HEK293 cells stably expressing GloSensor 40F cGMP biosensor
T1 sequence (Q02153 1-619): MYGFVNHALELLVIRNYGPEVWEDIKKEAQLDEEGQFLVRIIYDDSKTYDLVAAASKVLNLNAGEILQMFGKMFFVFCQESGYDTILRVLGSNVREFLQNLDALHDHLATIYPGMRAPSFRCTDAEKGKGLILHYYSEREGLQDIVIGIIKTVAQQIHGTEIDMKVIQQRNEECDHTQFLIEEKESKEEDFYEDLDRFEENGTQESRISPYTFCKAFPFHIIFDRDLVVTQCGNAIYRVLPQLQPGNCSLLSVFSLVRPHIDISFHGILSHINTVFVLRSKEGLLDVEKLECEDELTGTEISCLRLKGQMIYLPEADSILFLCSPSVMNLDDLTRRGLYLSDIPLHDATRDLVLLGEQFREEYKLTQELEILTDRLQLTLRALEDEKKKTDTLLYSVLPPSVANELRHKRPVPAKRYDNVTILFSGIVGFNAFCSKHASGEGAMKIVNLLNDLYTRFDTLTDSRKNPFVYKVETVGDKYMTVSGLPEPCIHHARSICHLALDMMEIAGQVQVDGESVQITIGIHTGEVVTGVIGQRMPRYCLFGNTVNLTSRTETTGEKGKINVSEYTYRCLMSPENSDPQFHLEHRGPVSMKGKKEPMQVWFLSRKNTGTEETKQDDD
T1 sequence (Q02108 1-690): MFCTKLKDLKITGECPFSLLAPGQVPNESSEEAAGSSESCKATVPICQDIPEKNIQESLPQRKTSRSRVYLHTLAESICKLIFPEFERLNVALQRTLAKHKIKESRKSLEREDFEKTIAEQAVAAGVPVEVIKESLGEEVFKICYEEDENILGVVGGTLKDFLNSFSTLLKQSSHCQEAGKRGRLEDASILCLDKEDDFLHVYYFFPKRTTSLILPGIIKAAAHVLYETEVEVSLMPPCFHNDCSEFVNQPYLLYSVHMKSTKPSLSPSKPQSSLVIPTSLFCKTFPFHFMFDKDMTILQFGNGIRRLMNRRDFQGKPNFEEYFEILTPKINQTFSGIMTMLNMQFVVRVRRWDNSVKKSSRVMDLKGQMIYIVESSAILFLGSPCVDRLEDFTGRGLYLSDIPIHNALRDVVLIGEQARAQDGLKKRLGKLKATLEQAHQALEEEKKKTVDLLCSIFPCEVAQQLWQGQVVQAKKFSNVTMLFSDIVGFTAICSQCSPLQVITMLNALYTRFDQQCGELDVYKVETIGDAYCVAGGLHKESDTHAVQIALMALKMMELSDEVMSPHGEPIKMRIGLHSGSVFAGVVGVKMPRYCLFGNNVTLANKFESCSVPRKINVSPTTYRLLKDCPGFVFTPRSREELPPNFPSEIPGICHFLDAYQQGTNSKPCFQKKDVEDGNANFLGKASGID
Experiment: cGMP GloSensor cell-based assay, 384-well format (Example 2a)
Conditions: HEK293 GloSensor 40F cGMP cells; 10 μM DETA-NONOate; 50% of high control (30 μM Compound Y); read-out: Abs EC50
Description: Human embryonic kidney cells (HEK293) cells expressing GloSensor™ 40F cGMP (Part No: CS182801, Promega) were used to evaluate the activity of test compounds. The luminescent biosensors (engineered luciferase) that were incorporated into these cells detect cGMP formed by the compounds stimulating the sGC enzyme and emit luminescence.
cGMP GloSensor cells were maintained in Dulbecco's Modification of Eagle's Medium (DMEM) supplemented with fetal bovine serum (FBS, 10% final) and hygromycine (200 ug/ml). The day before assay, cells were plated in DMEM with 10% FBS in a 50 μL volume at a density of 1.5×10^4 cells/well in a poly-D-lysine coated 384-well flat white-bottom plate (Corning Cat No 35661). Cells were incubated overnight at 37° C. in a humidified chamber with 5% CO2. The next day, medium was removed and cells were replaced with 40 ul/well of GloSensor™, 2 mM (Promega Cat No E1291). Cells were treated for 90 minutes at 25° C. to allow the substrate to equilibrate in the cells. Test compounds and Diethylenetriamine NONOate (DETA-NONOate, or DETA-NO) was diluted to 3 mM (20×) in serum-free CO2 independent medium and serially diluted at 4× dilutions to create 5× dose curve from which 10 ul was added to the wells (x μM concentration for test compound solution and 10 μM concentration for DETA-NONOate solution; wherein x is one of the following final concentrations: 30000 nM, 7500 nM, 1875 nM, 468.8 nM, 117.2 nM, 29.29 nM, 7.320 nM, 1.830 nM, 0.460 nM, 0.114 nM, and 0.029 nM).
For the kinetics studies, luminescense was measured right away for 0.2 sec per well with Envision (Perkin Elmer). For endpoint SAR screening, data were collected after 55 min incubation at room temperature.
Data were normalized to a high control using the following equation: 100*(Sample−Low Control)/(High Control−Low Control), where the low control is the average of 16 samples treated with 1% DMSO, and the high control is the average of 16 samples treated with 30 μM of Compound Y depicted below. Data were fit using a 4-parameter fit (log(agonist) vs. response—variable slope) using GraphPad Prism Software v.5. n=2 for all compounds. The Absolute (Abs) EC50 was interpolated from the curve fit and is defined as the concentration at which a given compound elicits 50% of the high control response after data normalization as indicated above. Compounds failing to elicit a minimum response of 50% are reported as >30 μM or ND. For compounds run in duplicate or n higher than 2, the result herein given is the geometric mean of the several results obtained.

| SMILES | EC50 [nM] |
| --- | --- |
| Fc1cccc(Cc2nc(-c3nc(C(F)F)n[nH]3)cn3ncnc23)c1 [Compound I-21, 6-(3-(Difluoromethyl)-1H-1,2,4-triazol-5-yl)-8-(3-fluorobenzyl)-[1,2,4]triazolo[1,5-a]pyrazine] | ≤ 100 |
| Fc1cccc(Cc2nc(-c3nc(C(F)F)n[nH]3)cn3ncnc23)c1F [Compound I-17, 8-(2,3-Difluorobenzyl)-6-(3-(difluoromethyl)-1H-1,2,4-triazol-5-yl)-[1,2,4]triazolo[1,5-a]pyrazine] | ≤ 100 |
| Fc1ccccc1Cc1nc(-c2nc(C(F)(F)F)n[nH]2)cn2c(I)cnc12 [Compound I-66, 8-(2-Fluorobenzyl)-3-iodo-6-(3-(trifluoromethyl)-1H-1,2,4-triazol-5-yl)imidazo[1,2-a]pyrazine] | 100 to 1000 |
| Cn1cnc2c(Cc3ccccc3F)nc(-c3nc(C(F)(F)F)n[nH]3)cc21 [Compound I-36, 4-(2-Fluorobenzyl)-1-methyl-6-(3-(trifluoromethyl)-1H-1,2,4-triazol-5-yl)-1H-imidazo[4,5-c]pyridine] | > 1000 |
| Fc1ccccc1Cc1nc(-c2nc(C(F)(F)F)n[nH]2)cn2c(Cl)cnc12 [Compound I-67, 3-Chloro-8-(2-fluorobenzyl)-6-(3-(trifluoromethyl)-1H-1,2,4-triazol-5-yl)imidazo[1,2-a]pyrazine] | ≤ 100 |
| Cc1c(F)cc(Cc2nc(-c3nc(C(F)(F)F)n[nH]3)cn3ccnc23)cc1F [Compound I-34, 8-(3,5-Difluoro-4-methylbenzyl)-6-(3-(trifluoromethyl)-1H-1,2,4-triazol-5-yl)imidazo[1,2-a]pyrazine] | ≤ 100 |
| Fc1ccccc1Cc1nc(-c2nc(C(F)F)n[nH]2)cn2ncnc12 [Compound I-26, 6-(3-(Difluoromethyl)-1H-1,2,4-triazol-5-yl)-8-(2-fluorobenzyl)-[1,2,4]triazolo[1,5-a]pyrazine] | ≤ 100 |
| Fc1cccc(Cc2nc(-c3nc(C(F)(F)F)n[nH]3)cn3ncnc23)c1 [Compound I-22, 8-(3-Fluorobenzyl)-6-(3-(trifluoromethyl)-1H-1,2,4-triazol-5-yl)-[1,2,4]triazolo[1,5-a]pyrazine] | ≤ 100 |
| N#Cc1cnc2c(Cc3ccccc3F)nc(-c3nc(C(F)(F)F)n[nH]3)cn12 [Compound I-70, 8-(2-Fluorobenzyl)-6-(3-(trifluoromethyl)-1H-1,2,4-triazol-5-yl)imidazo[1,2-a]pyrazine-3-carbonitrile] | 100 to 1000 |
| Cc1c(F)cc(Cc2nc(-c3nc(C(F)F)n[nH]3)cn3ccnc23)cc1F [Compound I-35, 8-(3,5-Difluoro-4-methylbenzyl)-6-(3-(difluoromethyl)-1H-1,2,4-triazol-5-yl)imidazo[1,2-a]pyrazine] | ≤ 100 |

The remaining lines, values ahead:

| EC50 [nM] | SMILES |
| --- | --- |
| 100 to 1000 | Cc1nc(-c2cn3ccnc3c(Cc3ccccc3F)n2)nn1CCCCF [Compound I-50, 8-(2-Fluorobenzyl)-6-(1-(4-fluorobutyl)-5-methyl-1H-1,2,4-triazol-3-yl)imidazo[1,2-a]pyrazine] |
| ≤ 100 | Cc1nc(-c2cn3ccnc3c(Cc3ccccc3F)n2)nn1Cc1ccc(F)cc1 [Compound I-41, 8-(2-Fluorobenzyl)-6-(1-(4-fluorobenzyl)-5-methyl-1H-1,2,4-triazol-3-yl)imidazo[1,2-a]pyrazine] |
| 100 to 1000 | Cc1cn2cc(-c3nc(C(F)(F)F)n[nH]3)nc(Cc3ccccc3F)c2n1 [Compound I-31, 8-(2-Fluorobenzyl)-2-methyl-6-(3-(trifluoromethyl)-1H-1,2,4-triazol-5-yl)imidazo[1,2-a]pyrazine] |
| > 1000 | Fc1cccc(F)c1Cc1nc(-c2nc(C(F)(F)F)n[nH]2)cn2ccnc12 [Compound I-19, 8-(2,6-Difluorobenzyl)-6-(3-(trifluoromethyl)-1H-1,2,4-triazol-5-yl)imidazo[1,2-a]pyrazine] |
| 100 to 1000 | Cc1n[nH]c(-c2cn3ccnc3c(Cc3ccccc3F)n2)n1 [Compound I-4, 8-(2-fluorobenzyl)-6-(3-methyl-1H-1,2,4-triazol-5-yl)imidazo[1,2-a]pyrazine] |
| ≤ 100 | Fc1ccccc1Cc1nc(-c2nc(Cl)n[nH]2)cn2ccnc12 [Compound I-62, 6-(3-Chloro-1H-1,2,4-triazol-5-yl)-8-(2-fluorobenzyl)-imidazo[1,2-a]pyrazine] |
| > 1000 | Nc1nc(-c2cn3ccnc3c(Cc3ccccc3F)n2)n(CC(F)(F)F)n1 [Compound I-60, 5-(8-(2-fluorobenzyl)imidazo[1,2-a]pyrazin-6-yl)-1-(2,2,2-trifluoroethyl)-1H-1,2,4-triazol-3-amine] |
| 100 to 1000 | Fc1ccccc1Cc1nc(-c2nc(-n3ccnc3)n[nH]2)cn2ccnc12 [Compound I-63, 6-(3-(1H-imidazol-1-yl)-1H-1,2,4-triazol-5-yl)-8-(2-fluorobenzyl)imidazo[1,2-a]pyrazine] |
| ≤ 100 | Nc1nc(-c2cn3ccnc3c(Cc3ccccc3F)n2)nn1Cc1cccc(F)c1 [Compound I-58, 1-(3-Fluorobenzyl)-3-(8-(2-fluorobenzyl)imidazo[1,2-a]pyrazin-6-yl)-1H-1,2,4-triazol-5-amine] |
| 100 to 1000 | Nc1n[nH]c(-c2cn3ccnc3c(Cc3ccccc3F)n2)n1 [Compound I-57, 5-(8-(2-Fluorobenzyl)imidazozo[1,2-a]pyrazin-6-yl)-1H-1,2,4-triazol-3-amine] |
| 100 to 1000 | Cc1nc(-c2cn3ccnc3c(Cc3ccccc3F)n2)nn1CCC(F)(F)F [Compound I-54, 8-(2-Fluorobenzyl)-6-(5-methyl-1-(3,3,3-trifluoropropyl)-1H-1,2,4-triazol-3-yl)imidazo[1,2-a]pyrazine] |
| ≤ 100 | Cc1cnc2c(Cc3ccccc3F)nc(-c3nc(C(F)(F)F)n[nH]3)cn12 [Compound I-71, 8-(2-Fluorobenzyl)-3-methyl-6-(3-(trifluoromethyl)-1H-1,2,4-triazol-5-yl)imidazo[1,2-a]pyrazine] |
| 100 to 1000 | Fc1ccccc1Cc1nc(-c2nc(C3CC3(F)F)n[nH]2)cn2ccnc12 (racemic) [Compound I-64, rac-6-(3-(2,2-Difluorocyclopropyl)-1H-1,2,4-triazol-5-yl)-8-(2-fluorobenzyl)imidazo[1,2-a]pyrazine] |
| 100 to 1000 | CN(C)c1n[nH]c(-c2cn3ccnc3c(Cc3ccccc3F)n2)n1 [Compound I-65, 5-(8-(2-fluorobenzyl)imidazo[1,2-a]pyrazin-6-yl)-N,N-dimethyl-1H-1,2,4-triazol-3-amine] |
